# Experimental data from US5409898A, “Compositions and methods for treating infections caused by organisms sensitive to β-lactam antibiotics” (priority 1994, dated 1995).
# Columns and labels:
# E. coli H16 [1] = assay: In vivo protection of neutropenic mice from lethal E. coli H16 infection (magainin 2, C-13 peptide, cefepime, amikacin)
# Method: The ability of magainin and cefepime combinations to protect mice from a lethal infection of E. coli was examined. Mice were made neutropenic by injection of Cytoxan and then challenged with E. coli. Mice were then divided into four different groups: (1) mice that were given no further treatment; (2) were given magainin 2 or C-13 peptide only; (3) were given cefepime only and (4) were given a combination of magainin 2 or C-13 peptide and cefepime. […] When amikacin, an aminoglycoside, was tested in similar experiments, no in vitro bactericidal activity or in vivo protection was found.
# Mice were made neutropenic five days prior to bacterial challenge. Neutropenia was induced by subcutaneous injection of 250 mg/kg Cytoxan (cyclophosphamide). The mice were challenged with 2×10^4 E. coli H16. Challenge was by intraperitoneal injection. […] The survival of the mice was monitored for a period of at least 10 days
# E. coli ATCC 25922 [2] = assay: Serum bactericidal assay in 40% pooled normal human serum (magainin 2 with antibiotics); assay type: cell-based, Escherichia coli; settings: 1/32, 1/16, 1/8 MIC antibiotic; 200 μg/ml magainin 2; 40% pooled normal human serum
# E. coli ATCC 25922 [3] = assay: Bactericidal assay in GVB++ buffer (magainin 2 / cefepime); assay type: cell-based, Escherichia coli; settings: cefepime alone (1/4 MIC)
# Method: FIG. 1 illustrates magainin 2 killing of untreated and cefepime altered E. coli in buffer. […] Cells were diluted as described in Section 6.1.5 and added to tubes containing GVB^++ buffer, with or without cefepime, and varying concentrations of magainin 2 peptide (indicated on the X axis). […] After 180 minutes at 37° C., bacterial survival was determined by measuring the number of colony forming units (cfu) in each tube. Bacterial counts were determined in triplicate. For each magainin concentration: Log Kill=log10 cfu no magainin-log10 cfu containing magainin.
# The total reaction mixture was 0.25 ml.
# A645AP (pBR322) = assay: Determination of the minimum inhibitory concentration (MIC), A645AP (pBR322); assay type: cell-based; settings: Escherichia coli; antibiotic resistant strain A645AP (pBR322)
# Method: (§1) The MIC represents the lowest concentration of antimicrobial agent at which complete inhibition occurs. MIC's were determined by the microdilution plate dilution method using AMH (Manual of Clinical Microbiology, Fourth Edition, Lennette, E. H. Ed. in Chief, ASM. 1985. pps 972-977). At least three different determinations were performed with each antibiotic for each strain.
# (§2) MIC's were determined by the microdilution plate dilution method using AMH (Manual of Clinical Microbiology, Fourth Edition, Lennette, E. H. Ed. in Chief, ASM. 1985. pps 972-977). At least three different determinations were performed with each antibiotic for each strain.
# M009 = assay: Determination of the minimum inhibitory concentration (MIC), M009; assay type: cell-based, Pseudomonas aeruginosa; settings: antibiotic resistant strain M009
# Method: as §1, §2
# E. coli H16 [4] = assay: In vivo protection of neutropenic mice from systemic E. coli H16 infection (C-13 peptide analogs)
# Source text: The ability of C-13 peptide analogs and cefepime combinations to protect mice from a lethal infection of E. coil was examined. Mice were made neutropenic by an injection of cyclophosphamide and then challenged with E. coli. Mice were then divided into four groups: (1) mice that were given PBS; (2) were given C-13 peptide analogs only; (3) were given cefepime only; and (4) were given a combination of C-13 peptide analogs and cefepime.
# (§3) Male CrL:CF1 mice were made neutropenic five days prior to bacterial challenge. Neutropenia was induced by subcutaneous injection of 250 mg/kg Cytoxan (cyclophosphamide). The mice were challenged with either 2×10^4 E. coli H16 (Table 4) or 5×10^4 A645AP by intraperitoneal injection. Mice were divided into four treatment groups: (1) PBS; (2) C-13 peptide analog (15 mg/kg); (3) cefepime (0.1 mg/kg); (4) a combination treatment of cefepime and C-13 peptide analog (0.1 mg/kg cefepime and 15 mg/kg C-13 peptide analog) that were combined prior to injection. All injections were made in PBS (0.2 ml) and were administered intramuscularly with each injection in separate legs, one and 3.5 hours after bacterial challenge. The survival of the mice was monitored for ten days and the results analyzed by the Fisher Exact test.
# [5] = test system: non K1 E. coli strain A645AP; assay: In vivo protection of neutropenic mice challenged with E. coli A645AP; settings: neutropenic mice challenged with E. coli A645AP (5.0×10^4 organisms)
# Method: as §3
# C-13 peptide analog G was also examined in neutropenic mice challenged with the non K1 E. coli strain A645AP (5.0×10^4 organisms). When mice were examined for survival after bacterial challenge the following results were obtained: in group 1, where only PBS was administered 3 out of 20 mice survived; in group 2, where only G was administered, 0 out of 15 survived; in group 3 where cefepime was administered 3 out of 20 survived; and in group 4, where both G and cefepime were administered 8 out of 15 survived.
# [6] = neutropenic mice, 2×10^4 E. coli H16 i.p., peptide 15 mg/kg, cefepime 0.1 mg/kg i.m. at one and 3.5 hours, ten days
smiles,measurement,setting,value
NCC[C@H](O)C(=O)N[C@@H]1C[C@H](N)[C@@H](O[C@H]2O[C@H](CN)[C@@H](O)[C@H](O)[C@H]2O)[C@H](O)[C@H]1O[C@H]1O[C@H](CO)[C@@H](O)[C@H](N)[C@H]1O [amikacin],"mice survived (out of total), amikacin experiment","E. coli H16 [1]; magainin 2 two injections 1 mg/mouse, amikacin two injections of 3 mg/kg",three out of 10
same,synergy of antibiotic with magainin 2,E. coli ATCC 25922 [2],"neither Amikacin, an aminoglycoside and ciproflaxacin, a quinoline were synergistic"
CO/N=C(\C(=O)N[C@@H]1C(=O)N2C(C(=O)[O-])=C(C[N+]3(C)CCCC3)CS[C@H]12)c1csc(N)n1 [cefepime],mice survived (out of total),"E. coli H16 [1]; neutropenic mice, 2×10^4 E. coli H16 i.p., two i.m. injections at 1 and 3.5 hr: 1 mg/mouse magainin 2, 0.1 mg/kg cefepime, at least 10 days",1 out of 20
same,synergy of antibiotic with magainin 2,E. coli ATCC 25922 [2],synergistic
same,log10 kill,E. coli ATCC 25922 [3],Less than 0.3 log10
same,MIC,A645AP (pBR322),1 µg/mL
same,MIC,M009,64 ug/MI
same,protection from systemic E. coli H16 infection,E. coli H16 [4]; Fisher Exact test,failed to provide a significant level of protection
same,% Survival,E. coli H16 [4]; [6],12%
same,Number--Survived/Total,E. coli H16 [4]; [6],3/25
same,mice survived (out of total),[5],3 out of 20
